Measured values from PubChem BioAssay (NCI).
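Following 48 hours of exposure in 96-well plates, responses at five concentrations were used to interpolate endpoints linearly. Here, GI50 denotes the concentration required for 50% inhibition of growth. TGI: total growth inhibition.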

What was measured:
Test in all cases: DTP human tumour cell line panel, 48 h
K-562 leukemia = tested on: K-562 leukemia
OVCAR-4 ovarian = tested on: OVCAR-4 ovarian
SK-OV-3 ovarian = tested on: SK-OV-3 ovarian
COLO 205 colon = tested on: COLO 205 colon
MOLT-4 leukemia = tested on: MOLT-4 leukemia
SNB-19 CNS = tested on: SNB-19 CNS
HOP-92 NSCLC = tested on: HOP-92 NSCLC
A498 renal = tested on: A498 renal
A549 NSCLC = tested on: A549 NSCLC
IGROV1 ovarian = tested on: IGROV1 ovarian
OVCAR-8 ovarian = tested on: OVCAR-8 ovarian
NCI-H226 lung = tested on: NCI-H226 lung
HCC-2998 colon = tested on: HCC-2998 colon
RXF 393 renal = tested on: RXF 393 renal
SR leukemia = tested on: SR leukemia
SF-268 CNS = tested on: SF-268 CNS
NCI-H460 lung = tested on: NCI-H460 lung
M14 melanoma = tested on: M14 melanoma
MDA-MB-435 = tested on: MDA-MB-435
CAKI-1 renal = tested on: CAKI-1 renal
SF-295 CNS = tested on: SF-295 CNS
NCI-H23 lung = tested on: NCI-H23 lung
UO-31 renal = tested on: UO-31 renal
DU-145 prostate = tested on: DU-145 prostate
LOX IMVI melanoma = tested on: LOX IMVI melanoma
SN12C renal = tested on: SN12C renal
786-0 renal = tested on: 786-0 renal
SK-MEL-28 melanoma = tested on: SK-MEL-28 melanoma
HCT-116 colon = tested on: HCT-116 colon
NCI/ADR-RES ovarian = tested on: NCI/ADR-RES ovarian
UACC-62 melanoma = tested on: UACC-62 melanoma
HOP-62 NSCLC = tested on: HOP-62 NSCLC
HCT-15 colon = tested on: HCT-15 colon
KM12 colon = tested on: KM12 colon
CCRF-CEM leukemia = tested on: CCRF-CEM leukemia
T-47D breast = tested on: T-47D breast
U251 CNS = tested on: U251 CNS
TK-10 renal = tested on: TK-10 renal
OVCAR-3 ovarian = tested on: OVCAR-3 ovarian
PC-3 prostate = tested on: PC-3 prostate
SK-MEL-2 melanoma = tested on: SK-MEL-2 melanoma
MCF7 breast = tested on: MCF7 breast
NCI-H522 lung = tested on: NCI-H522 lung
SK-MEL-5 melanoma = tested on: SK-MEL-5 melanoma
ACHN renal = tested on: ACHN renal
RPMI-8226 leukemia = tested on: RPMI-8226 leukemia
MALME-3M melanoma = tested on: MALME-3M melanoma
HS 578T breast = tested on: HS 578T breast
OVCAR-5 ovarian = tested on: OVCAR-5 ovarian
UACC-257 melanoma = tested on: UACC-257 melanoma
SF-539 CNS = tested on: SF-539 CNS
SW-620 colon = tested on: SW-620 colon
HT29 colon = tested on: HT29 colon
MDA-MB-231 breast = tested on: MDA-MB-231 breast
SNB-75 CNS = tested on: SNB-75 CNS

Clc1ccc(-c2nc(NCc3ccco3)c3ccccc3n2)c(Cl)c1
GI50 (K-562 leukemia): 8.7 µM | TGI (K-562 leukemia): 60.4 µM | GI50 (OVCAR-4 ovarian): 43.3 µM | TGI (OVCAR-4 ovarian): > 100 µM | GI50 (SK-OV-3 ovarian): 18.6 µM | TGI (SK-OV-3 ovarian): > 100 µM | GI50 (COLO 205 colon): 21.4 µM | TGI (COLO 205 colon): > 100 µM | GI50 (MOLT-4 leukemia): 9.16 µM | TGI (MOLT-4 leukemia): > 100 µM | GI50 (SNB-19 CNS): 38.4 µM | TGI (SNB-19 CNS): > 100 µM | GI50 (HOP-92 NSCLC): 4.94 µM | TGI (HOP-92 NSCLC): 74.7 µM | GI50 (A498 renal): 22 µM | TGI (A498 renal): 41 µM | GI50 (A549 NSCLC): 20.1 µM | TGI (A549 NSCLC): 49.1 µM | GI50 (IGROV1 ovarian): 22.2 µM | TGI (IGROV1 ovarian): > 100 µM | GI50 (OVCAR-8 ovarian): 24.2 µM | TGI (OVCAR-8 ovarian): 82.7 µM | GI50 (NCI-H226 lung): 20.7 µM | TGI (NCI-H226 lung): > 100 µM | GI50 (HCC-2998 colon): 18.2 µM | TGI (HCC-2998 colon): 46.9 µM | GI50 (RXF 393 renal): 20.4 µM | TGI (RXF 393 renal): 43.1 µM | GI50 (SR leukemia): 10.1 µM | TGI (SR leukemia): 44.7 µM | GI50 (SF-268 CNS): 32.3 µM | TGI (SF-268 CNS): 75.3 µM | GI50 (NCI-H460 lung): 32.9 µM | TGI (NCI-H460 lung): > 100 µM | GI50 (M14 melanoma): 17.4 µM | TGI (M14 melanoma): 36.1 µM | GI50 (MDA-MB-435): 16.1 µM | TGI (MDA-MB-435): 33.7 µM | GI50 (CAKI-1 renal): 8.82 µM | TGI (CAKI-1 renal): 31 µM | GI50 (SF-295 CNS): 13.6 µM | TGI (SF-295 CNS): 33.5 µM | GI50 (NCI-H23 lung): 17.1 µM | TGI (NCI-H23 lung): 60.5 µM | GI50 (UO-31 renal): 26.8 µM | TGI (UO-31 renal): > 100 µM | GI50 (DU-145 prostate): 8.38 µM | TGI (DU-145 prostate): 29.6 µM | GI50 (LOX IMVI melanoma): 8.98 µM | TGI (LOX IMVI melanoma): 26.8 µM | GI50 (SN12C renal): 16.1 µM | TGI (SN12C renal): 44.9 µM | GI50 (786-0 renal): 20 µM | TGI (786-0 renal): 56.1 µM | GI50 (SK-MEL-28 melanoma): 24.5 µM | TGI (SK-MEL-28 melanoma): > 100 µM | GI50 (HCT-116 colon): 16.3 µM | TGI (HCT-116 colon): 45.8 µM | GI50 (NCI/ADR-RES ovarian): 26.3 µM | TGI (NCI/ADR-RES ovarian): > 100 µM | GI50 (UACC-62 melanoma): 13.9 µM | TGI (UACC-62 melanoma): 32.7 µM | GI50 (HOP-62 NSCLC): 15.8 µM | TGI (HOP-62 NSCLC): 34.7 µM | GI50 (HCT-15 colon): 13.1 µM | TGI (HCT-15 colon): 42.7 µM | GI50 (KM12 colon): 10.2 µM | TGI (KM12 colon): 27.3 µM | GI50 (CCRF-CEM leukemia): 10.5 µM | TGI (CCRF-CEM leukemia): > 100 µM | GI50 (T-47D breast): 45.6 µM | TGI (T-47D breast): > 100 µM | GI50 (U251 CNS): 16.5 µM | TGI (U251 CNS): 47.4 µM | GI50 (TK-10 renal): 2.38 µM | TGI (TK-10 renal): 7.1 µM | GI50 (OVCAR-3 ovarian): 11.6 µM | TGI (OVCAR-3 ovarian): 29.7 µM | GI50 (PC-3 prostate): 13.9 µM | TGI (PC-3 prostate): 55.7 µM | GI50 (SK-MEL-2 melanoma): 36.8 µM | TGI (SK-MEL-2 melanoma): > 100 µM | GI50 (MCF7 breast): 6.38 µM | TGI (MCF7 breast): > 100 µM | GI50 (NCI-H522 lung): 33.7 µM | TGI (NCI-H522 lung): > 100 µM | GI50 (SK-MEL-5 melanoma): 13.9 µM | TGI (SK-MEL-5 melanoma): 30 µM | GI50 (ACHN renal): 7.81 µM | TGI (ACHN renal): 58.3 µM | GI50 (RPMI-8226 leukemia): 5.64 µM | TGI (RPMI-8226 leukemia): 81.9 µM | GI50 (MALME-3M melanoma): 12.9 µM | TGI (MALME-3M melanoma): 32.4 µM | GI50 (HS 578T breast): 14.2 µM | TGI (HS 578T breast): 46.4 µM | GI50 (OVCAR-5 ovarian): 40.1 µM | TGI (OVCAR-5 ovarian): > 100 µM

COc1ccc2nc3ccccc3c(NCCCCN(CCCl)CCCl)c2c1
TGI (OVCAR-4 ovarian): 0.542 µM | TGI (MOLT-4 leukemia): < 0.0369 µM | TGI (SNB-19 CNS): 7.9 µM | TGI (A498 renal): 4.21 µM | TGI (A549 NSCLC): 6.25 µM | TGI (IGROV1 ovarian): 17.7 µM | TGI (OVCAR-8 ovarian): 0.625 µM | TGI (UACC-257 melanoma): 3.34 µM | TGI (NCI-H226 lung): 9.65 µM | TGI (HCC-2998 colon): 6.06 µM | TGI (SF-539 CNS): 1.26 µM | TGI (RXF 393 renal): 0.289 µM | TGI (SR leukemia): 2.79 µM | TGI (SF-268 CNS): 2.36 µM | TGI (NCI-H460 lung): 0.69 µM | TGI (MDA-MB-435): 21.4 µM | TGI (SF-295 CNS): 18.6 µM | TGI (NCI-H23 lung): 2.09 µM | TGI (UO-31 renal): 2.29 µM | TGI (SN12C renal): 3.13 µM | TGI (786-0 renal): 1.64 µM | TGI (SK-MEL-28 melanoma): 8.02 µM | TGI (HCT-116 colon): 1.32 µM | TGI (NCI/ADR-RES ovarian): 5.4 µM | TGI (UACC-62 melanoma): 1.42 µM | TGI (HOP-62 NSCLC): 24.8 µM | TGI (HCT-15 colon): > 43 µM | TGI (SW-620 colon): 2.74 µM | TGI (KM12 colon): 3.48 µM | TGI (T-47D breast): 13.8 µM | TGI (HT29 colon): > 100 µM | TGI (U251 CNS): 1.83 µM | TGI (PC-3 prostate): 7.56 µM | TGI (SK-MEL-2 melanoma): 2.06 µM | TGI (MDA-MB-231 breast): 16.7 µM | TGI (MCF7 breast): 5.23 µM | TGI (SNB-75 CNS): 2.04 µM | TGI (SK-MEL-5 melanoma): 3.37 µM | TGI (ACHN renal): 1.15 µM | TGI (RPMI-8226 leukemia): 0.943 µM | TGI (MALME-3M melanoma): 0.725 µM | TGI (HS 578T breast): > 22.1 µM | TGI (OVCAR-5 ovarian): > 23.6 µM
